Experimental data published in patent publication US9464093B2, “Substituted imidazo[4',5':4,5]cyclopenta[1,2-e]pyrrolo[1,2-a]pyrazines and oxazolo[4',5':4,5]cyclopenta[1,2-e]pyrrolo[1,2-a]pyrazines for treating brain cancer” (Mayo Foundation for Medical Education and Research, priority 2012, dated 2016).
“Also recorded” adds a separate entry of the source. Like-named read-outs stand apart in the source and are kept apart here.

Experiments:
MB-453 = assay: Cell proliferation assay MB-453 (Example 6); assay type: cell-based; details: cells counted on the sixth day
Protocol: (§1) In-vitro assays were performed to assess the cytotoxic impact of AA analogues on breast cancer cell lines (MB-468, MB-453, and T47D), lymphoma cell lines (Raji and OCI-LY10), and glioblastoma multiforme cell line (U87). The three breast cancer cell lines represent three subtypes of breast cancer: triple-negative (MB-468), Her2-positive (MB-453), and hormone receptor positive (T47D).
(§2) The IC50 values obtained for each compound represents the concentration of the tested compound that is needed to decrease the cancer cell count by 50%. Cancer cells were seeded in triplicate at 50,000 cells per well of a 24-well plate in 0.5 ml medium. […] Cells were harvested and counted on the sixth day using a Beckman Coulter counter.

T47D = assay: Cell proliferation assay T47D (Example 6); assay type: cell-based; details: cells counted on the sixth day
Protocol: as §1, §2

[1] = test system: DU145 prostate cancer cells; assay: Cytotoxicity, MTT method, DU145; details: read-out: Cytotoxicity (IC50, μM) DU145
Protocol: The cell suspension in the culture medium was plated into each well of 96-well plates (10,000 cells/well/100 μL). After 24 h, testing compounds were added, and then the plates were incubated for an additional 24 h in a humidified atmosphere of 5% CO2 at 37° C. […] The IC50 value was determined by linear interpolation from the growth inhibition curve.

U87 cells = assay: U87 orthotopic murine model for glioblastoma multiforme; assay type: in vivo; details: for Median Survival (Day) GBM (U-87): control 25.5; for survival (Kaplan-Meier) vs control, U87 model / tumor growth (BLI) vs control, U87 model: all treatment groups (2.5 or 5 mg/kg i.p. daily for 4 days)
Protocol: (§3) Female athymic mice (8-10 weeks old and weighing 20-25 g at the beginning of the study) were purchased from Harlan laboratories (Indianapolis, Ind.). They were housed in a temperature-controlled sterilized room (23±2° C.) with a 12-h light/dark cycle and free access to food and water throughout the study.
(§4) Murine brain tumor models were created by intracerebral injection of luciferase-transfected cancer cells in athymic mice under anesthesia using a stereotactic platform. For murine model for CNS lymphoma, 1×10^5 OCI-LY10 B lymphoma cells were used. For murine model for metastatic breast cancer of the brain (MBCB), 1×10^5 MB-468 triple-negative breast cancer cells were used. For murine model for glioblastoma multiforme (GBM), 1.75×10^5 U87 cells were used. Eight-week-old athymic mice underwent a minimum 7-day acclimation/quarantine prior to surgery. Surgery was performed in a laminar flow hood under sterile conditions. Tylenol 300 mg/kg PO was given for analgesia 48 hours before the surgery and continuing 48 hours postoperatively. Anesthesia was achieved by inhalation of 1-2% isoflurane. After the mouse became well anesthetized, it was placed in the Kopf stereotactic instrument. A small amount of BNP antibiotic cream (a mixture of Bacitracin, Neomycin and Polymyxin) was smeared on its eyes to prevent infection and corneal damage during surgery. A strip of soft fabric was placed over the mouse's body and tail to prevent excessive heat loss during surgery. The scalp area was cleaned with a 2% solution of Betadine and dried with cotton tipped applicator. A midline sagittal incision was made in the scalp. A small burr hole was drilled in the left skull with a surgical drill (Kopf) or a Dremel drill according to the coordinates (AP: 0.5 mm, LM: 2.5 mm) as determined by reference to the mouse brain atlas by Franklin and Paxinos. The dura mater was surgically exposed, and a 10 μl Hamilton syringe with a 26S-gauge beveled needle was lowered into the left cerebral hemisphere up to a depth of 3 mm and 5 μl of tumor cells were slowly infused (0.5 μl/min). The needle was left in place for 5 minutes to prevent reflux and then was slowly removed. The skin was closed with wound clips. The mice recovered from anesthesia and surgery in a warm environment and were not returned to their cages until motor activity returned. Cages were placed on top of a heating pad to minimize the loss of body heat during the recovery. The mice were monitored post-operatively at least twice a day for 5 days or until recovery was complete.
(§5) BLI was used to assess the impact of the treatments on the brain tumor growth. After intracerebral injection of cancer cells, all the mice were subjected to bioluminesence imaging (BLI) twice a week starting at day-4 post-intracerebral injection to monitor the real-time in vivo tumor growth. BLI was conducted using a Xenogen Lumina optical imaging system (Caliper Life Sciences, Hopkinton, Mass.). Mice were anesthetized with isofluorane before intraperitoneal injections of luciferin at a dose of 150 mg/kg, providing a saturating substrate concentration for luciferase enzyme. Peak luminescent signals were recorded 10 minutes after luciferin injection. Regions of interest encompassing the intracranial area of signal were defined using Living Image software (Xenogen, Alameda, Calif.), and the total photons/s/steradian/cm2 was recorded.
(§6) Five mice each were assigned to one of seven treatment groups or one vehicle control group for all three brain tumor models. Mice in experimental groups received either 2.5 mg/kg or 5 mg/kg of AA, CEAA, or DCEAA by intraperitoneal route daily for 4 days. For CAA, only 2.5 mg/Kg by intraperitoneal route daily for 4 days was used. The control group received DMSO by intraperitoneal route for 4 days. The end point for the survival analysis was the development of limb paralysis. Animals were checked at least twice per day. Animals that reached the end point were sacrificed by CO2 anesthesia. […]

MB-468 = assay: Cell proliferation assay MB-468 (Example 6); assay type: cell-based; details: cells counted on the sixth day
Protocol: as §1, §2

[2] = test system: MB-468 triple-negative breast cancer cells; assay: MB-468 orthotopic murine model for metastatic breast cancer of the brain; assay type: in vivo, athymic mice; details: for Median Survival (Day) Breast Cancer (MB-468): control 52; for survival (Kaplan-Meier) vs control, MB-468 model / tumor growth (BLI) vs control, MB-468 model: all treatment groups (2.5 or 5 mg/kg i.p. daily for 4 days)
Protocol: as §3, §4, §5, §6

[3] = test system: Raji B cells (Burkitt's lymphoma cells); assay: Cytotoxicity, cell count, Raji (Example 4); details: read-out: Cytotoxicity (IC50, μM) Raji
Protocol: (§7) Raji cells and MB-468 cells were purchased from American Tissue Culture (Manassas, Va.). […] Cells were harvested and counted on the third day in a Coulter Particle Counter (Beckman-Coulter Corp.: Brea, Calif.). IC50 values were calculated using GraphPad Prism 5 (GraphPad Software Inc., La Jolla, Calif.).

[4] = test system: OCI-LY10 B lymphoma cells; assay: OCI-LY10 orthotopic murine CNS lymphoma model; assay type: in vivo; details: for Median Survival (Day) CNS Lymphoma (OCI-LY10): control 35; for survival (Kaplan-Meier) vs control, OCI-LY10 model / tumor growth (BLI) vs control, OCI-LY10 model: all treatment groups (2.5 or 5 mg/kg i.p. daily for 4 days)
Protocol: as §3, §4, §5, §6

OCI-LY10 = assay: Cell proliferation assay OCI-LY10 (Example 6); assay type: cell-based; details: cells counted on the sixth day
Protocol: as §1, §2

U87 = assay: Cell proliferation assay U87 (Example 6); assay type: cell-based; details: cells counted on the sixth day
Protocol: as §1, §2

[5] = test system: MB-468 (triple-negative breast cancer cells); assay: Cytotoxicity, cell count, MB-468 (Example 4); details: read-out: Cytotoxicity (IC50, μM) MB-468
Protocol: as §7

Raji = assay: Cell proliferation assay Raji (Example 6); assay type: cell-based; details: cells counted on the sixth day
Protocol: as §1, §2

[6] = 2.5 mg/kg intraperitoneal daily for 4 days
[7] = 5 mg/kg intraperitoneal daily for 4 days

CN1C(=O)N[C@H]2[C@@H]3NC(=O)c4ccc(Br)n4[C@@H]3C[C@]21O [AA, agelastatin A, reference compound]
IC50 (MB-453): 644 nM
IC50 (T47D): 55.1 nM
IC50 ([1]; MTT, 24 h incubation): 2.3 µM
Median Survival (Day) GBM (U-87) (U87 cells; [6]): 28 days
weight loss, U87 model (U87 cells; 5 mg/kg dose level): Some weight loss
Median Survival (Day) GBM (U-87) (U87 cells; [7]): 30 days
survival (Kaplan-Meier) vs control, U87 model (U87 cells): significantly prolonged survival; also recorded: prolongation of survival
tumor growth (BLI) vs control, U87 model (U87 cells): significantly decreased tumor growth; also recorded: significantly slower
IC50 (MB-468): 2800 nM
Median Survival (Day) Breast Cancer (MB-468) [2, 6]: 57 days
weight loss, MB-468 model ([2]; 5 mg/kg dose level): Some weight loss
Median Survival (Day) Breast Cancer (MB-468) [2, 7]: 60.5 days
survival (Kaplan-Meier) vs control, MB-468 model [2]: significantly prolonged survival; also recorded: prolongation of survival
tumor growth (BLI) vs control, MB-468 model [2]: significantly decreased tumor growth; also recorded: significantly slower
IC50 ([3]; cells counted on the third day): 0.14 µM
Median Survival (Day) CNS Lymphoma (OCI-LY10) [4, 6]: 48.5 days
weight loss, OCI-LY10 model ([4]; 5 mg/kg dose level): Some weight loss
Median Survival (Day) CNS Lymphoma (OCI-LY10) [4, 7]: 46 days
survival (Kaplan-Meier) vs control, OCI-LY10 model [4]: significantly prolonged survival; also recorded: prolongation of survival
tumor growth (BLI) vs control, OCI-LY10 model [4]: significantly decreased tumor growth; also recorded: significantly slower
IC50 (OCI-LY10): 162 nM
IC50 (U87): 2800 nM
IC50 ([5]; cells counted on the third day): 2.8 µM
IC50 (Raji): 137 nM

CN1C(=O)N[C@H]2[C@@H]3NC(=O)c4ccc(Cl)n4[C@@H]3C[C@]21O [CAA, chloroagelastatin A]
IC50 (MB-453): 91.9 nM
IC50 (T47D; Homo sapiens, T47D): 29.8 nM
IC50 ([1]; Homo sapiens, DU-145, 24 h): 1.2 µM
weight loss, U87 model (U87 cells; 2.5 mg/kg): Some weight loss
Median Survival (Day) GBM (U-87) (U87 cells; [6]): 31 days
survival (Kaplan-Meier) vs control, U87 model (U87 cells): significantly prolonged survival; also recorded: prolongation of survival
tumor growth (BLI) vs control, U87 model (U87 cells): significantly decreased tumor growth; also recorded: significantly slower
IC50 (MB-468): 81.1 nM
weight loss, MB-468 model ([2]; 2.5 mg/kg): Some weight loss
Median Survival (Day) Breast Cancer (MB-468) [2, 6]: 75 days
survival (Kaplan-Meier) vs control, MB-468 model [2]: significantly prolonged survival
tumor growth (BLI) vs control, MB-468 model [2]: significantly decreased tumor growth
IC50 ([3]; Homo sapiens, Raji): 0.18 µM
weight loss, OCI-LY10 model ([4]; 2.5 mg/kg): Some weight loss
Median Survival (Day) CNS Lymphoma (OCI-LY10) [4, 6]: 49 days
survival (Kaplan-Meier) vs control, OCI-LY10 model [4]: significantly prolonged survival; also recorded: prolongation of survival
tumor growth (BLI) vs control, OCI-LY10 model [4]: significantly decreased tumor growth; also recorded: significantly slower
IC50 (OCI-LY10; Homo sapiens, OCI-Ly10): 102 nM
IC50 (U87; Homo sapiens, U-87 MG): 96.6 nM
IC50 [5]: 0.08 µM
IC50 (Raji; Homo sapiens, Raji): 181 nM
